The test system of the assay is Phakopsora pachyrhizi. Briefly: Phakopsora pachyrhizi Test in Soybean (preventive spray). The conditions noted are these: preventive spray on Soybean plants, inoculated one day after treatment, disease severity vs untreated control. It is filed as in vivo. How it is done:
Example 7: Phakopsora pachyrhizi Test in Soybean Compounds were dissolved in 2% dimethyl sulfoxide/acetone and then mixed with water containing an emulsifier to a calibrated spray volume of 50 mL. This 50 mL spray solution was poured into spray bottles for further applications. To test the preventive activity of compounds, healthy young Soybean plants, raised in the greenhouse, were sprayed with the active compound preparation at the stated application rates inside the spray cabinets using hollow cone nozzles. One day after treatment, the plants were inoculated with a spore suspension containing 2×10^5Phakopsora pachyrhizi conidia. The inoculated plants were then kept in a greenhouse chamber at 22-24° C. temperature and 80-90% relative humidity for disease expression. A visual assessment of the compound's performance was carried out by rating the disease severity (0-100% scale) on treated plants 3, 7, 10 and 15 days after application. Efficacy (% control) of the compounds was calculated by comparing the disease rating in the treatment with the one of the untreated control. The sprayed plants were also assessed for plant compatibility by recording symptoms like necrosis, chlorosis and stunting.

The term pest or weed control denotes the degree to which the test organism was suppressed or injured, in per cent.

In the case of `O=C(CSc1cccc(F)c1)c1ccc(-c2noc(C(F)(F)F)n2)cc1` [Compound 64, 2-((3-fluorophenyl)thio)-1-(4-(5-(trifluoromethyl)-1,2,4-oxadiazol-3-yl)phenyl)ethan-1-one], the pest or weed control at 500 ppm was ≥ 70%. Regarding `COc1ccc(CSCC(=O)c2ccc(-c3noc(C(F)(F)F)n3)cc2)cc1` [Compound 57, 2-((4-methoxybenzyl)thio)-1-(4-(5-(trifluoromethyl)-1,2,4-oxadiazol-3-yl)phenyl)ethan-1-one], the pest or weed control at 500 ppm was ≥ 70%. For `O=C(CN1CCOCC1)c1ccc(-c2noc(C(F)(F)F)n2)cc1` [Compound 136, 2-morpholino-1-(4-(5-(trifluoromethyl)-1,2,4-oxadiazol-3-yl)phenyl)ethan-1-one], the pest or weed control at 500 ppm is ≥ 70%.

For the compound `O=C(CSc1ccc(Cl)cc1)c1ccc(-c2noc(C(F)(F)F)n2)cc1` [Compound 53, 2-((4-chlorophenyl)thio)-1-(4-(5-(trifluoromethyl)-1,2,4-oxadiazol-3-yl)phenyl)ethan-1-one], the pest or weed control at 500 ppm is ≥ 70%.

Take `O=C(C[S+]([O-])c1ccc(Cl)cc1)c1ccc(-c2noc(C(F)(F)F)n2)cc1` (stereo not shown) [Compound 78, 2-((4-chlorophenyl)sulfinyl)-1-(4-(5-(trifluoromethyl)-1,2,4-oxadiazol-3-yl)phenyl)ethan-1-one]: the pest or weed control at 500 ppm is ≥ 70%. As to `Cc1cc(F)cc(OCC(=O)c2ccc(-c3noc(C(F)(F)F)n3)cc2)c1` [Compound 41, 2-(3-fluoro-5-methylphenoxy)-1-(4-(5-(trifluoromethyl)-1,2,4-oxadiazol-3-yl)phenyl)ethan-1-one], the pest or weed control at 500 ppm is ≥ 70%. As for `Cc1cccc(SCC(=O)c2ccc(-c3noc(C(F)(F)F)n3)cc2)c1` [Compound 67, 2-(m-tolylthio)-1-(4-(5-(trifluoromethyl)-1,2,4-oxadiazol-3-yl)phenyl)ethan-1-one], the pest or weed control at 500 ppm was ≥ 70%. Consider `Cc1ccc(OCC(=O)c2ccc(-c3noc(C(F)(F)F)n3)cc2)cc1` [Compound 34, 2-(p-tolyloxy)-1-(4-(5-(trifluoromethyl)-1,2,4-oxadiazol-3-yl)phenyl)ethan-1-one], for which the pest or weed control at 500 ppm is ≥ 70%. For `O=C(C[S+]([O-])c1ccccc1F)c1ccc(-c2noc(C(F)(F)F)n2)cc1` (stereo not shown) [Compound 88, 2-((2-fluorophenyl)sulfinyl)-1-(4-(5-(trifluoromethyl)-1,2,4-oxadiazol-3-yl)phenyl)ethan-1-one] the value was ≥ 70%; for `Cc1ccc(SCC(=O)c2ccc(-c3noc(C(F)(F)F)n3)cc2)cc1` [Compound 22, 2-(p-tolylthio)-1-(4-(5-(trifluoromethyl)-1,2,4-oxadiazol-3-yl)phenyl)ethan-1-one], ≥ 70%; for `O=C(COc1cccc(C(F)(F)F)c1)c1ccc(-c2noc(C(F)(F)F)n2)cc1` [Compound 40, 1-(4-(5-(trifluoromethyl)-1,2,4-oxadiazol-3-yl)phenyl)-2-(3-(trifluoromethyl)phenoxy)ethan-1-one], ≥ 70%. For `COc1ccccc1OCC(=O)c1ccc(-c2noc(C(F)(F)F)n2)cc1` [Compound 11, 2-(2-methoxyphenoxy)-1-(4-(5-(trifluoromethyl)-1,2,4-oxadiazol-3-yl)phenyl)ethan-1-one], the pest or weed control at 500 ppm is ≥ 70%. On to `COc1ccc(SCC(=O)c2ccc(-c3noc(C(F)(F)F)n3)cc2)cc1` [Compound 23, 2-((4-methoxyphenyl)thio)-1-(4-(5-(trifluoromethyl)-1,2,4-oxadiazol-3-yl)phenyl)ethan-1-one], for which the pest or weed control at 500 ppm is ≥ 70%. `COc1cccc(SCC(=O)c2ccc(-c3noc(C(F)(F)F)n3)cc2)c1` [Compound 14, 2-((3-methoxyphenyl)thio)-1-(4-(5-(trifluoromethyl)-1,2,4-oxadiazol-3-yl)phenyl)ethan-1-one]: the pest or weed control at 500 ppm was ≥ 70%.

For the compound `Cc1ccc(C(F)(F)F)c(OCC(=O)c2ccc(-c3noc(C(F)(F)F)n3)cc2)n1` [Compound 45, 2-((6-methyl-3-(trifluoromethyl)pyridin-2-yl)oxy)-1-(4-(5-(trifluoromethyl)-1,2,4-oxadiazol-3-yl)phenyl)ethan-1-one], the pest or weed control at 500 ppm was ≥ 70%. As to `O=C(COc1ccc(Cl)cc1)c1ccc(-c2noc(C(F)(F)F)n2)cc1` [Compound 6, 2-(4-chlorophenoxy)-1-(4-(5-(trifluoromethyl)-1,2,4-oxadiazol-3-yl)phenyl)ethan-1-one], the pest or weed control at 500 ppm was ≥ 70%. As for `O=C(CSc1ccccc1F)c1ccc(-c2noc(C(F)(F)F)n2)cc1` [Compound 65, 2-((2-fluorophenyl)thio)-1-(4-(5-(trifluoromethyl)-1,2,4-oxadiazol-3-yl)phenyl)ethan-1-one], the pest or weed control at 500 ppm was ≥ 70%. For the compound `O=C(COc1ccc(Cl)cc1Cl)c1ccc(-c2noc(C(F)(F)F)n2)cc1` [Compound 20, 2-(2,4-dichlorophenoxy)-1-(4-(5-(trifluoromethyl)-1,2,4-oxadiazol-3-yl)phenyl)ethan-1-one], the pest or weed control at 500 ppm is ≥ 70%. For `O=C(CSc1cccc(Cl)c1)c1ccc(-c2noc(C(F)(F)F)n2)cc1` [Compound 54, 2-((3-chlorophenyl)thio)-1-(4-(5-(trifluoromethyl)-1,2,4-oxadiazol-3-yl)phenyl)ethan-1-one], the pest or weed control at 500 ppm was ≥ 70%. On to `O=C(COc1cccc(F)c1)c1ccc(-c2noc(C(F)(F)F)n2)cc1` [Compound 3, 2-(3-fluorophenoxy)-1-(4-(5-(trifluoromethyl)-1,2,4-oxadiazol-3-yl)phenyl)ethan-1-one], for which the pest or weed control at 500 ppm was ≥ 70%. The same measure for `O=C(CSc1ccc(Cl)c(Cl)c1)c1ccc(-c2noc(C(F)(F)F)n2)cc1` [Compound 52, 2-((3,4-dichlorophenyl)thio)-1-(4-(5-(trifluoromethyl)-1,2,4-oxadiazol-3-yl)phenyl)ethan-1-one]: ≥ 70%. `Cc1ccc(C)c(OCC(=O)c2ccc(-c3noc(C(F)(F)F)n3)cc2)c1` [Compound 16, 2-(2,5-dimethylphenoxy)-1-(4-(5-(trifluoromethyl)-1,2,4-oxadiazol-3-yl)phenyl)ethan-1-one]: the pest or weed control at 500 ppm is ≥ 70%. As for `Cc1ccc([S+]([O-])CC(=O)c2ccc(-c3noc(C(F)(F)F)n3)cc2)cc1` (stereo not shown) [Compound 86, 2-(p-tolylsulfinyl)-1-(4-(5-(trifluoromethyl)-1,2,4-oxadiazol-3-yl)phenyl)ethan-1-one], the pest or weed control at 500 ppm is ≥ 70%.

For the compound `COc1ccc(OCC(=O)c2ccc(-c3noc(C(F)(F)F)n3)cc2)cc1` [Compound 2, 2-(4-methoxyphenoxy)-1-(4-(5-(trifluoromethyl)-1,2,4-oxadiazol-3-yl)phenyl)ethan-1-one], the pest or weed control at 500 ppm is ≥ 70%.

For the compound `O=C(CS(=O)(=O)c1ccc(Cl)cc1)c1ccc(-c2noc(C(F)(F)F)n2)cc1` [Compound 95, 2-((4-chlorophenyl)sulfonyl)-1-(4-(5-(trifluoromethyl)-1,2,4-oxadiazol-3-yl)phenyl)ethan-1-one], the pest or weed control at 500 ppm is ≥ 70%. For the compound `Cc1ccc(Cl)c(OCC(=O)c2ccc(-c3noc(C(F)(F)F)n3)cc2)c1` [Compound 33, 2-(2-chloro-5-methylphenoxy)-1-(4-(5-(trifluoromethyl)-1,2,4-oxadiazol-3-yl)phenyl)ethan-1-one], the pest or weed control at 500 ppm was ≥ 70%. In the case of `O=C(COc1ccc(C(F)(F)F)cc1)c1ccc(-c2noc(C(F)(F)F)n2)cc1` [Compound 36, 1-(4-(5-(trifluoromethyl)-1,2,4-oxadiazol-3-yl)phenyl)-2-(4-(trifluoromethyl)phenoxy)ethan-1-one], the pest or weed control at 500 ppm was ≥ 70%. On to `O=C(CNc1ccccc1F)c1ccc(-c2noc(C(F)(F)F)n2)cc1` [Compound 29, 2-((2-fluorophenyl)amino)-1-(4-(5-(trifluoromethyl)-1,2,4-oxadiazol-3-yl)phenyl)ethan-1-one], for which the pest or weed control at 500 ppm is ≥ 70%. For `O=C(CNc1ccc(C(F)(F)F)cc1)c1ccc(-c2noc(C(F)(F)F)n2)cc1` [Compound 28, 1-(4-(5-(trifluoromethyl)-1,2,4-oxadiazol-3-yl)phenyl)-2-((4-(trifluoromethyl)phenyl)amino)ethan-1-one], the pest or weed control at 500 ppm is ≥ 70%. The same measure for `Cc1csc(SCC(=O)c2ccc(-c3noc(C(F)(F)F)n3)cc2)n1` [Compound 26, 2-((4-methylthiazol-2-yl)thio)-1-(4-(5-(trifluoromethyl)-1,2,4-oxadiazol-3-yl)phenyl)ethan-1-one]: ≥ 70%; for `O=C(CSc1c(Cl)cccc1Cl)c1ccc(-c2noc(C(F)(F)F)n2)cc1` [Compound 13, 2-((2,6-dichlorophenyl)thio)-1-(4-(5-(trifluoromethyl)-1,2,4-oxadiazol-3-yl)phenyl)ethan-1-one]: ≥ 70%; for `O=C(C[S+]([O-])c1ccccc1)c1ccc(-c2noc(C(F)(F)F)n2)cc1` (stereo not shown) [Compound 84, 2-(phenylsulfinyl)-1-(4-(5-(trifluoromethyl)-1,2,4-oxadiazol-3-yl)phenyl)ethan-1-one]: ≥ 70%. The same measure for `O=C(COc1ccnc(Cl)c1)c1ccc(-c2noc(C(F)(F)F)n2)cc1` [Compound 44, 2-((2-chloropyridin-4-yl)oxy)-1-(4-(5-(trifluoromethyl)-1,2,4-oxadiazol-3-yl)phenyl)ethan-1-one]: ≥ 70%; for `O=C(CSC1CCCC1)c1ccc(-c2noc(C(F)(F)F)n2)cc1` [Compound 24, 2-(cyclopentylthio)-1-(4-(5-(trifluoromethyl)-1,2,4-oxadiazol-3-yl)phenyl)ethan-1-one]: ≥ 70%.
